System: 12 single or co-culture in vitro tissue models of primary cells
Test: Culture/co-culture cell model panel, extracellular biomarkers (DiscoveRx); for CCL2/MCP-1: reference of the scale not given here; for CD141/Thrombomodulin: reference of the scale not given here; for CD142/Tissue Factor: reference of the scale not given here; for CXCL8/IL-8: reference of the scale not given here; for CXCL9/MIG: reference of the scale not given here; for M-CSF: reference of the scale not given here; for SRB: reference of the scale not given here
Assay type: cell-based, human
[1] = /HDFNo unstimulated fibroblasts, 1.00E0 nM
[2] = /HDFNo unstimulated fibroblasts, 1.00E1 nM
[3] = /HDFNo unstimulated fibroblasts, 1.00E2 nM
[4] = /HDFNo unstimulated fibroblasts, 1.00E3 nM
[5] = /HDFNo unstimulated fibroblasts, 1.00E4 nM

## Cn1ncc2cc(-c3cnc(N)c(Cl)c3N3CCC4(CCNC4=O)CC3)ccc21 [CMPD 3]
3C, 1.00E0 nM
  CCL2/MCP-1: 0.030
  CD54/ICAM-1: -0.007
  CD87/uPAR: -0.138
  CD106/VCAM-1: 0.033
  CD141/Thrombomodulin: 0.044
  CD142/Tissue Factor: 0.040
  CXCL8/IL-8: 0.00749
  CXCL9/MIG: 0.008
  HLA-DR: -0.007
  Proliferation: -0.065
  SRB: -0.049
3C, 1.00E1 nM
  CCL2/MCP-1: -0.022
  CD54/ICAM-1: -0.036
  CD87/uPAR: -0.247
  CD106/VCAM-1: 0.039
  CD141/Thrombomodulin: 0.072
  CD142/Tissue Factor: 0.133
  CXCL8/IL-8: -0.095
  CXCL9/MIG: -0.00373
  HLA-DR: -0.076
  Proliferation: -0.054
  SRB: -0.076
3C, 1.00E2 nM
  CCL2/MCP-1: -0.124
  CD54/ICAM-1: -0.048
  CD87/uPAR: -0.349
  CD106/VCAM-1: 0.034
  CD141/Thrombomodulin: 0.056
  CD142/Tissue Factor: 0.139
  CXCL8/IL-8: -0.180
  CXCL9/MIG: -0.007
  HLA-DR: -0.144
  Proliferation: -0.088
  SRB: -0.094
3C, 1.00E3 nM
  CCL2/MCP-1: -0.168
  CD54/ICAM-1: -0.045
  CD87/uPAR: -0.370
  CD106/VCAM-1: 0.037
  CD141/Thrombomodulin: 0.050
  CD142/Tissue Factor: 0.150
  CXCL8/IL-8: -0.301
  CXCL9/MIG: -0.026
  HLA-DR: -0.148
  Proliferation: -0.102
  SRB: -0.099
3C, 1.00E4 nM
  CCL2/MCP-1: -0.253
  CD54/ICAM-1: -0.033
  CD87/uPAR: -0.407
  CD106/VCAM-1: 0.036
  CD141/Thrombomodulin: 0.036
  CD142/Tissue Factor: 0.224
  CXCL8/IL-8: -0.302
  CXCL9/MIG: -0.020
  HLA-DR: -0.278
  Proliferation: -0.404
  SRB: -0.222
/HDF3CT, 1.00E0 nM
  CCL2/MCP-1: -0.010
  CD54/ICAM-1: -0.008
  CD106/VCAM-1: 0.026
  CXCL8/IL-8: -0.039
  CXCL9/MIG: 0.020
  CXCL10/IP-10: 0.003
  Collagen I: 0.036
  M-CSF: 0.008
  MMP-1: 0.097
  PAI-I: 0.039
  SRB: 0.007
  TIMP-2: 0.070
/HDF3CT, 1.00E1 nM
  CCL2/MCP-1: -0.048
  CD54/ICAM-1: -0.062
  CD106/VCAM-1: 0.0026
  CXCL8/IL-8: -0.028
  CXCL9/MIG: 0.010
  CXCL10/IP-10: 0.017
  Collagen I: 0.021
  M-CSF: -0.050
  MMP-1: 0.095
  PAI-I: -0.027
  SRB: -0.007
  TIMP-2: 0.045
/HDF3CT, 1.00E2 nM
  CCL2/MCP-1: -0.069
  CD54/ICAM-1: -0.067
  CD106/VCAM-1: 0.015
  CXCL8/IL-8: -0.099
  CXCL9/MIG: -0.022
  CXCL10/IP-10: 0.012
  Collagen I: 0.00367
  M-CSF: -0.024
  MMP-1: 0.086
  PAI-I: -0.074
  SRB: -0.023
  TIMP-2: 0.070
/HDF3CT, 1.00E3 nM
  CCL2/MCP-1: -0.111
  CD54/ICAM-1: -0.061
  CD106/VCAM-1: 0.021
  CXCL8/IL-8: -0.189
  CXCL9/MIG: -0.040
  CXCL10/IP-10: 0.00333
  Collagen I: 0.027
  M-CSF: -0.00149
  MMP-1: 0.040
  PAI-I: -0.123
  SRB: 0.00334
  TIMP-2: 0.107
/HDF3CT, 1.00E4 nM
  CCL2/MCP-1: -0.053
  CD54/ICAM-1: -0.081
  CD106/VCAM-1: 0.009
  CXCL8/IL-8: -0.144
  CXCL9/MIG: -0.049
  CXCL10/IP-10: -0.00029
  Collagen I: 0.010
  M-CSF: -0.092
  MMP-1: 0.107
  PAI-I: -0.208
  SRB: -0.230
  TIMP-2: 0.271
[1]
  CXCL8/IL-8: 0.059
  CXCL9/MIG: 0.119
  CXCL10/IP-10: 0.034
  CXCL11/I-TAC: 0.074
  EGFR: 0.022
  M-CSF: 0.066
  MMP-1: 0.081
  PAI-I: 0.044
  Proliferation_72hr: -0.013
  SRB: 0.039
  TIMP-1: 0.047
  TIMP-2: 0.100
[2]
  CXCL8/IL-8: 0.037
  CXCL9/MIG: 0.058
  CXCL10/IP-10: 0.054
  CXCL11/I-TAC: -0.002
  EGFR: 0.009
  M-CSF: 0.048
  MMP-1: 0.040
  PAI-I: -0.042
  Proliferation_72hr: 0.000939
  SRB: 0.011
  TIMP-1: 0.040
  TIMP-2: 0.045
[3]
  CXCL8/IL-8: 0.041
  CXCL9/MIG: 0.091
  CXCL10/IP-10: 0.056
  CXCL11/I-TAC: -0.021
  EGFR: 0.019
  M-CSF: 0.020
  MMP-1: 0.030
  PAI-I: -0.011
  Proliferation_72hr: 0.020
  SRB: -0.014
  TIMP-1: -0.015
  TIMP-2: 0.091
[4]
  CXCL8/IL-8: 0.013
  CXCL9/MIG: 0.053
  CXCL10/IP-10: 0.0016
  CXCL11/I-TAC: -0.010
  EGFR: 0.012
  M-CSF: -0.000464
  MMP-1: 0.050
  PAI-I: -0.034
  Proliferation_72hr: 0.048
  SRB: -0.021
  TIMP-1: 0.010
  TIMP-2: 0.080
[5]
  CXCL8/IL-8: 0.011
  CXCL9/MIG: -0.074
  CXCL10/IP-10: -0.076
  CXCL11/I-TAC: 0.023
  EGFR: 0.045
  M-CSF: 0.010
  MMP-1: 0.054
  PAI-I: -0.028
  Proliferation_72hr: 0.002
  SRB: -0.00187
  TIMP-1: -0.007
  TIMP-2: 0.202
/HDFNo, 1.00E0 nM
  CCL2/MCP-1: 0.028
  CD54/ICAM-1: 0.066
  CD106/VCAM-1: 0.114
  Collagen I: 0.082
  Collagen III: 0.065
/HDFNo, 1.00E1 nM
  CCL2/MCP-1: 0.027
  CD54/ICAM-1: 0.074
  CD106/VCAM-1: 0.048
  Collagen I: 0.041
  Collagen III: 0.032
/HDFNo, 1.00E2 nM
  CCL2/MCP-1: 0.042
  CD54/ICAM-1: -0.013
  CD106/VCAM-1: 0.065
  Collagen I: 0.061
  Collagen III: 0.079
/HDFNo, 1.00E3 nM
  CCL2/MCP-1: 0.025
  CD54/ICAM-1: 0.014
  CD106/VCAM-1: 0.026
  Collagen I: 0.099
  Collagen III: 0.101
